The record followed here is patent US9371280B2, “Substituted pyrrolidine-2-carboxamides” (Hoffmann-La Roche Inc., priority 2012, dated 2016).

Structures can show the parent of a compound that is named as a salt. Where two headings read alike, the source gives them in different places.

The target in the assay is interaction between p53 and MDM2 proteins (recombinant GST-tagged MDM2) (Homo sapiens, UniProt Q00987). Put plainly: HTRF assay of inhibition of the p53-MDM2 interaction (GST-MDM2 / biotinylated p53 peptide).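 Note: FRET read-out from Eu-labelled anti-GST antibody to streptavidin-APC, with 90 nM N-terminally biotinylated p53 peptide and 160 ng/ml GST-MDM2 in Tris-borate saline containing 1 mM DTT, 384-well format.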 As to conditions: HTRF, 0.02% BSA, 37° C. 1 h. The assay is classed as binding.
interaction between p53 and MDM2 proteins (recombinant GST-tagged MDM2), sequence (Q00987 whole entry): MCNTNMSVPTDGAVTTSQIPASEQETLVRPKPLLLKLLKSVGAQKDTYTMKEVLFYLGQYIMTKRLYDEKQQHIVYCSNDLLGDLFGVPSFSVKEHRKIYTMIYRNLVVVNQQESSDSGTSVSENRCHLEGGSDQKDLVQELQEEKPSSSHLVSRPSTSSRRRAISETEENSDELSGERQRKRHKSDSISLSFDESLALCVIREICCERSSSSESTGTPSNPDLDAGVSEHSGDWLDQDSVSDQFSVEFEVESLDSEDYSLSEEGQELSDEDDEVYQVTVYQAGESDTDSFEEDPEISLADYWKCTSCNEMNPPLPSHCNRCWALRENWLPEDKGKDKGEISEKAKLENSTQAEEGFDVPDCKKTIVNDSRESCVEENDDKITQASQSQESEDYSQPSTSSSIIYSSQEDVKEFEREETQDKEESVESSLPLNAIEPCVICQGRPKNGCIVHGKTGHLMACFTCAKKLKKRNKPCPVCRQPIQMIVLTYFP

Method: The ability of the compounds to inhibit the interaction between p53 and MDM2 proteins was measured by an HTRF (homogeneous time-resolved fluorescence) assay in which recombinant GST-tagged MDM2 binds to a peptide that resembles the MDM2-interacting region of p53 (Lane et al.). Binding of GST-MDM2 protein and p53-peptide (biotinylated on its N-terminal end) is registered by the FRET (fluorescence resonance energy transfer) between Europium (Eu)-labeled anti-GST antibody and streptavidin-conjugated Allophycocyanin (APC).
Test is performed in black flat-bottom 384-well plates (Costar) in a total volume of 40 uL containing: 90 nM biotinylate peptide, 160 ng/ml GST-MDM2, 20 nM streptavidin-APC (PerkinElmerWallac), 2 nM Eu-labeled anti-GST-antibody (PerkinElmerWallac), 0.02% bovine serum albumin (BSA), 1 mM dithiothreitol (DTT) and 20 mM Tris-borate saline (TBS) buffer as follows: Add 10 uL of GST-MDM2 (640 ng/ml working solution) in reaction buffer to each well. […] Incubate at 37° C. for 1 h.

By IC50 is commonly meant the concentration that gives 50% inhibition. On to “4-{[(2R,3S,4R,5S)-4-(4-Chloro-2-fluoro-phenyl)-3-(3-chloro-2-fluoro-phenyl)-4-cyano-5-(2,2-dimethyl-propyl)-pyrrolidine-2-carbonyl]-amino}-3-methoxy-benzoic acid, dodecaethylene glycol ester [Example 43]”, for which the IC50 (read-out: IC50 (uM, 0.02% BSA)) turned out to be 0.0062 µM.

`COCCOCCOCCOC(=O)c1ccc(NC(=O)[C@@H]2N[C@@H](CC(C)(C)C)[C@](C#N)(c3ccc(Cl)cc3F)[C@H]2c2cccc(Cl)c2F)c(OC)c1` [Example 48, 4-{[(2R,3S,4R,5S)-4-(4-Chloro-2-fluoro-phenyl)-3-(3-chloro-2-fluoro-phenyl)-4-cyano-5-(2,2-dimethyl-propyl)-pyrrolidine-2-carbonyl]-amino}-3-methoxy-benzoic acid 2-[2-(2-methoxy-ethoxy)-ethoxy]-ethyl ester, hydrochloride]: the IC50 worked out at 0.0135 µM.

Regarding `COc1cc(C(=O)OCCOCCN(C)C)ccc1NC(=O)[C@@H]1N[C@@H](CC(C)(C)C)[C@](C#N)(c2ccc(Cl)cc2F)[C@H]1c1cccc(Cl)c1F` [Example 46, 4-{[(2R,3S,4R,5S)-4-(4-Chloro-2-fluoro-phenyl)-3-(3-chloro-2-fluoro-phenyl)-4-cyano-5-(2,2-dimethyl-propyl)-pyrrolidine-2-carbonyl]-amino}-3-methoxy-benzoic acid 2-(2-dimethylamino-ethoxy)-ethyl ester, hydrochloride], the IC50 came to 0.0142 µM.

Turning to `COc1cc(C(=O)OCCOC(=O)CNC(=O)OC(C)(C)C)ccc1NC(=O)[C@@H]1N[C@@H](CC(C)(C)C)[C@](C#N)(c2ccc(Cl)cc2F)[C@H]1c1cccc(Cl)c1F` [Example 29, 4-{[(2R,3S,4R,5S)-4-(4-Chloro-2-fluoro-phenyl)-3-(3-chloro-2-fluoro-phenyl)-4-cyano-5-(2,2-dimethyl-propyl)-pyrrolidine-2-carbonyl]-amino}-3-methoxy-benzoic acid 2-(2-tert-butoxycarbonylamino-acetoxy)-ethyl ester], the IC50 stood at 0.0167 µM.
